# Results taken from patent US12459951B2, “Compounds that interact with RAS superfamily proteins for treatment of cancers, inflammatory diseases, rasopathies, and fibrotic disease” (SHY Therapeutics, LLC, priority 2022, dated 2025).
# What was measured:
# [1] = system: IL6; assay: IL-6 Quantification Assay (ELISA), LPS-stimulated RAW 264.7; format: cell-based; parameters: inhibition: dose or concentration left out as unconfirmed; settings: Mus musculus, RAW264.7; read-out: IL-6: % inh.
# [2] = system: Akt phosphorylation; assay: Akt Phosphorylation Assay (western blot), Panc-1; format: cell-based, human; settings: at 10 μM, * = activation
# Summary of the method: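 Phospho-Akt (Ser473) was measured by western blot in lysates of KRas G12D Panc-1 cells exposed to test compound for 6 h at 37 °C, either at 10 μM final with 0.3% DMSO or as serial dilutions for IC50. One format used overnight 0.5% FBS starvation followed by a 15 min pulse of 1.5 ng/ml EGF. The other used cells in 10% FBS with no stimulation.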
# [3] = system: Erk1/2 phosphorylation; assay: Erk1/2 Phosphorylation Assay (western blot), Panc-1; format: cell-based, human; settings: at 10 μM, * = activation
# Summary of the method: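 Phospho-Erk1/2 (Thr202/Tyr204) was detected by western blot in lysates of Panc-1 cells (KRas G12D). These had 6 h, 37° C exposure to 10 μM compound or a dilution series for IC50, in 0.3% DMSO. Cells were either starved overnight in 0.5% FBS with a 15-min 1.5 ng/ml EGF pulse, or kept unstimulated in 10% FBS.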
SMILES,inhibition [1],% inh of Akt phosphorylation in Panc-1 [2],% inh of Erk1/2 phosphorylation in Panc-1 [3]
"Cc1c(-c2ccn(C)n2)cn2nc(-c3nccn3C)nc(Nc3ccc(OC(F)(F)F)cn3)c12 [Compound 232, 5-Methyl-2-(1-methyl-1H-imidazol-2-yl)-6-(1-methyl-1H-pyrazol-3-yl)-N-(5-(trifluoro-methoxy)pyridin-2-yl)pyrrolo[2,1-f][1,2,4]triazin-4-amine]",25 to 49%,D* (85-100% activation),B* (26-49% activation)
"Cc1c(-c2ccn(C)n2)cn2nc(-c3nccn3C)nc(Nc3cc4c(cn3)CCO4)c12 [Compound 221, N-(5-Methyl-2-(1-methyl-1H-imidazol-2-yl)-6-(1-methyl-1H-pyrazol-3-yl)pyrrolo[2,1-f][1,2,4]triazin-4-yl)-2,3-dihydrofuro[3,2-c]pyridin-6-amine]",25 to 49%,D* (85-100% activation),A* (1-25% activation)
"COCCCS(=O)(=O)Nc1nc(-c2nccn2C)nn2cc(-c3ccccc3)c(-c3ccccc3)c12 [Compound 213, 3-Methoxy-N-(2-(1-methyl-1H-imidazol-2-yl)-5,6-diphenylpyrrolo[2,1-f][1,2,4]triazin-4-yl)propane-1-sulfonamide]",25 to 49%,D* (85-100% activation),D* (85-100% activation)
"CO[C@H]1C[C@H](Nc2nc(-c3nccn3C)nn3cc(-c4ccc(CCN)cc4)c(-c4ccccc4)c23)C1.Cl [Compound 207, 6-(4-(2-Aminoethyl)phenyl)-N-((1r,3r)-3-methoxycyclobutyl)-2-(1-methyl-1H-imidazol-2-yl)-5-phenylpyrrolo[2,1-f][1,2,4]triazin-4-amine hydrochloride salt]",75 to 100%,C* (46-84% activation),D* (85-100% activation)
"CO[C@H]1C[C@H](Nc2nc(-c3nccn3C)nn3cc(-c4cccc5c4CCO5)c(-c4ccccc4)c23)C1 [Compound 210, 6-(2,3-Dihydrobenzofuran-4-yl)-N-((1r,3r)-3-methoxycyclobutyl)-2-(1-methyl-1H-imidazol-2-yl)-5-phenylpyrrolo[2,1-f][1,2,4]triazin-4-amine]",75 to 100%,D (85-100% inhibition),D (85-100% inhibition)
"CO[C@H]1C[C@H](Nc2nc(-c3nccn3C)nn3cc(-c4ccc(CN)cc4)c(-c4ccccc4)c23)C1.Cl [Compound 206, 6-(4-(Aminomethyl)phenyl)-N-((1r,3r)-3-methoxycyclobutyl)-2-(1-methyl-1H-imidazol-2-yl)-5-phenylpyrrolo[2,1-f][1,2,4]triazin-4-amine hydrochloride salt]",75 to 100%,C (50-84% inhibition),B (26-49% inhibition)
"Cc1c(-c2ccn(C)n2)cn2nc(-c3nccn3C)nc(Nc3ccc(OCC(F)(F)F)cn3)c12 [Compound 230, 5-Methyl-2-(1-methyl-1H-imidazol-2-yl)-6-(1-methyl-1H-pyrazol-3-yl)-N-(5-(2,2,2-trifluoroethoxy)pyridin-2-yl)pyrrolo[2,1-f][1,2,4]triazin-4-amine]",50 to 74%,D* (85-100% activation),D* (85-100% activation)
"Cc1ccc(Nc2nc(-c3nccn3C)nn3cc(-c4ccn(C)n4)c(C)c23)nc1 [Compound 226, 5-Methyl-2-(1-methyl-1H-imidazol-2-yl)-6-(1-methyl-1H-pyrazol-3-yl)-N-(5-methylpyridin-2-yl)pyrrolo[2,1-f][1,2,4]triazin-4-amine]",50 to 74%,D* (85-100% activation),A* (1-25% activation)
"COc1ccnc(Nc2nc(-c3nccn3C)nn3cc(-c4ccn(C)n4)c(C(=O)NCC(F)(F)F)c23)c1 [Compound 174, 4-((4-Methoxypyridin-2-yl)amino)-2-(1-methyl-1H-imidazol-2-yl)-6-(1-methyl-1H-pyrazol-3-yl)-N-(2,2,2-trifluoro-ethyl)pyrrolo[2,1-f][1,2,4]triazine-5-carboxamide]",1 to 24%,D* (85-100% activation),D* (85-100% activation)
"COc1ccnc(Nc2nc(-c3nccn3CCNC(=O)CCCC[C@H]3SC[C@H]4NC(=O)N[C@H]43)nn3cc(-c4ccn(C)n4)c(C)c23)c1 [Compound 216, N-(2-(2-(4-((4-methoxypyridin-2-yl)amino)-5-methyl-6-(1-methyl-1H-pyrazol-3-yl)pyrrolo[2,1-f][1,2,4]triazin-2-yl)-1H-imidazol-1-yl)ethyl)-5-((3aR,4R,6aS)-2-oxohexahydro-1H-thieno[3,4-d]imidazol-4-yl)pentanamide]",50 to 74%,A* (1-25% activation),C* (46-84% activation)
"COc1cc(Nc2nc(-c3nccn3C)nn3cc(-c4ccn(C)n4)c(C)c23)ncc1F [Compound 237, N-(5-Fluoro-4-methoxypyridin-2-yl)-5-methyl-2-(1-methyl-1H-imidazol-2-yl)-6-(1-methyl-1H-pyrazol-3-yl)pyrrolo[2,1-f][1,2,4]triazin-4-amine]",0%,D* (85-100% activation),0 (0% inhibition)
"CCNC(=O)c1c(-c2ccn(C)n2)cn2nc(-c3nccn3C)nc(Nc3cc(OC)ccn3)c12 [Compound 173, N-Ethyl-4-((4-methoxypyridin-2-yl)amino)-2-(1-methyl-1H-imidazol-2-yl)-6-(1-methyl-1H-pyrazol-3-yl)pyrrolo[2,1-f][1,2,4]triazine-5-carboxamide]",75 to 100%,C* (46-84% activation),C (50-84% inhibition)
"COCCNc1nc(-c2nccn2C)nn2cc(-c3cccc(OC)c3Cl)c(C)c12 [Compound 16, 6-(2-Chloro-3-methoxyphenyl)-N-(2-methoxyethyl)-5-methyl-2-(1-methyl-1H-imidazol-2-yl)pyrrolo[2,1-f][1,2,4]triazin-4-amine]",50 to 74%,0 (0% inhibition),A (1-25% inhibition)
"COc1ccnc(Nc2nc(-c3nccn3C)nn3cc(-c4ccn(C)n4)c(C(=O)N4CCCC4)c23)c1 [Compound 178, (4-((4-Methoxypyridin-2-yl)amino)-2-(1-methyl-1H-imidazol-2-yl)-6-(1-methyl-1H-pyrazol-3-yl)pyrrolo[2,1-f][1,2,4]triazin-5-yl)(pyrrolidin-1-yl)methanone]",50 to 74%,D* (85-100% activation),D* (85-100% activation)
"Cc1c(-c2ccn(C)n2)cn2nc(-c3nccn3C)nc(Nc3ccc(N(C)C)cn3)c12 [Compound 227, N5,N5-Dimethyl-N2-(5-methyl-2-(1-methyl-1H-imidazol-2-yl)-6-(1-methyl-1H-pyrazol-3-yl)pyrrolo[2,1-f][1,2,4]triazin-4-yl)pyridine-2,5-diamine]",50 to 74%,D* (85-100% activation),C* (46-84% activation)
"Cn1ccnc1-c1nc(NS(C)(=O)=O)c2c(-c3ccccc3)c(-c3ccccc3)cn2n1 [Compound 212, N-(2-(1-Methyl-1H-imidazol-2-yl)-5,6-diphenylpyrrolo[2,1-f][1,2,4]triazin-4-yl) methanesulfonamide]",1 to 24%,A* (1-25% activation),B* (26-49% activation)
"COc1ccnc(Nc2nc(-c3nccn3C)nn3cc(-c4cccnc4)c(-c4ccccc4)c23)c1 [Compound 196, N-(4-Methoxypyridin-2-yl)-2-(1-methyl-1H-imidazol-2-yl)-5-phenyl-6-(pyridin-3-yl)pyrrolo[2,1-f][1,2,4]triazin-4-amine]",75 to 100%,D* (85-100% activation),D* (85-100% activation)
"COc1cccc(Nc2nc(-c3ccccn3)nn3cc(-c4ccn(C(C)C)n4)c(C)c23)n1 [Compound 14, 6-(1-Isopropyl-1H-pyrazol-3-yl)-N-(6-methoxypyridin-2-yl)-5-methyl-2-(pyridin-2-yl)pyrrolo[2,1-f][1,2,4]triazin-4-amine]",50 to 74%,0 (0% inhibition),0 (0% inhibition)
"COC1CCCN(c2nc(-c3ccccn3)nn3cc(-c4ccn(C(C)C)n4)c(C)c23)C1 (racemic) [Compound 12, rac 6-(1-Isopropyl-1H-pyrazol-3-yl)-4-(3-methoxypiperidin-1-yl)-5-methyl-2-(pyridin-2-yl)pyrrolo[2,1-f][1,2,4]triazine]",25 to 49%,0 (0% inhibition),0 (0% inhibition)
"CO[C@H]1CC[C@H](Nc2nc(-c3nccn3C)nn3cc(-c4cccnc4)c(-c4ccccc4)c23)C1 (racemic) [Compound 194, rac N-((1S,3S)-3-Methoxycyclopentyl)-2-(1-methyl-1H-imidazol-2-yl)-5-phenyl-6-(pyridin-3-yl)pyrrolo[2,1-f][1,2,4]triazin-4-amine]",75 to 100%,D* (85-100% activation),D* (85-100% activation)
